Measurements taken from US20080293683A1, “Hormone Replacement Therapy” (University of Kansas Medical Center, priority 2007, published 2008).
Values joined by “and” are separate entries in the source; they are usually repeats but may differ in a detail not shown here. Equal values may be shown once. Read-outs that look alike come from different tables or passages of the source.

Columns and labels:
recombinant human ERα = target: T1, recombinant human ERα (Homo sapiens, UniProt P03372); test: ERα binding assay: competition of [3H]E2 binding by competing estrogens; conditions: for RBAα % (relative binding affinity for ERα, of E2): calculated against E2 = 100; for RBAα/RBAβ: ratio of relative binding affinities ERα over ERβ
T1 construct: purchased PanVera Corporation (Madison, Wis.); host or cells: baculovirus-mediated expression system
T1 sequence (P03372 1-595): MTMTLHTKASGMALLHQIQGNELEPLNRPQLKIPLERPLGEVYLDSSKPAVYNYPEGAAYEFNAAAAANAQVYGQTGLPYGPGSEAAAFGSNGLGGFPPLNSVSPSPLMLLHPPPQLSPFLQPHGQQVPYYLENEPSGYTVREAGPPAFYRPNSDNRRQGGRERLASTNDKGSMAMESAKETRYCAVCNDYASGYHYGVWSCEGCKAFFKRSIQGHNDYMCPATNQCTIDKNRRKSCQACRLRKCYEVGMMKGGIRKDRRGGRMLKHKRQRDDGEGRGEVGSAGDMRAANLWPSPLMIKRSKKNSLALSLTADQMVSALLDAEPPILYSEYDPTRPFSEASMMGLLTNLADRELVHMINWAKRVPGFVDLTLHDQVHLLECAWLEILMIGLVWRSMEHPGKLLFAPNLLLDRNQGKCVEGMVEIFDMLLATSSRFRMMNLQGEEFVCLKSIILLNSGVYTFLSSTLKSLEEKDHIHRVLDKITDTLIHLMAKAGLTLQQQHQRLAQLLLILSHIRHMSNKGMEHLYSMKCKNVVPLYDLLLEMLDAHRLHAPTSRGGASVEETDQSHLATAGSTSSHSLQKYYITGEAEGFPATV
From the text: (§1) The recombinant human ERα and ERβ proteins and bovine serum albumin (BSA) were obtained from PanVera Corporation (Madison, Wis.). According to the supplier, the recombinant human ERα and ERβ were produced in a baculovirus-mediated expression system, and they were soluble and functionally active, with post-translational modifications similar to those found in mammalian cells. See Reid et al., Human estrogen receptor-α: Regulation by synthesis, modification and degradation, Cell. Mol. Life.
(§2) The following buffer solutions were used in the ER binding assays, and they were prepared beforehand and stored at 4° C. The binding buffer consisted of 10% glycerol, 2 mM dithiothreitol, 1 mg/mL BSA and 10 mM Tris-HCl at pH 7.5. The ERα washing buffer contained 40 mM Tris-HCl and 100 mM KCl (pH 7.4), but the ERG washing buffer contained only 40 mM Tris-HCl (adjusted to pH 7.4). The 50% hydroxylapatite slurry was prepared first by vigorously mixing 10 g hydroxylapatite with 60 mL of the Tris-HCl solution (50 mM, pH 7.4). Hydroxylapatite was then allowed to settle for 20 minutes at room temperature, and the supernatant was decanted. The above procedures were repeated 10 times, and afterwards hydroxylapatite was kept in the 50 mM Tris-HCl solution overnight at 4° C. Hydroxylapatite slurry was then adjusted to an approximate final concentration of 50% (v/v) using the same Tris-HCl solution and stored at 4° C., and the slurry was stable for up to several months.
(§3) Note that all of the estrogens were initially dissolved in pure ethanol to a stock concentration of 1 mM, and then further diluted to 100 μM with 20% aqueous ethanol. […] Immediately before the addition of the ERα or ERβ protein, it was diluted in the binding buffer and mixed gently with repetitive pipettings. […] The incubation mixture was then mixed gently and thoroughly with repetitive pipettings. […] The binding mixture was incubated at room temperature for two hours. At the end of the incubation, 100 μL of the hydroxylapatite slurry was added to each tube and the tubes were incubated on ice for 15 minutes with 3 times of brief vortexing. An aliquot (1 mL) of the appropriate washing buffer was added, mixed, and centrifuged at 10,000 g for five minutes, and the supernatants were discarded. This wash step was repeated twice. Hydroxylapatite pellets were then resuspended in 200 μL ethanol (followed by another rinse with 200 μL ethanol), and then the content was transferred to scintillation vials (containing 4 mL of the scintillation fluid) for measurement of ^3H-radioactivity with a liquid scintillation counter (Packard Tri-CARB 2900 TR; Downers Grove, Ill.).
(§4) To calculate the specific binding (pmol/mL) of the human ERα or ERβ protein at each concentration point, the following equation was used: […]
(§5) When a lower radioligand concentration is used, the corresponding IC50 value will also be relatively lower, but when the radioligand concentration increases, the corresponding IC50 value will also increase. […] Since the RBA value is a parameter that is independent of the radioligand concentration used, we thus have placed more emphasis on the RBA values instead of the absolute IC50 values in interpreting the physiological meanings of the data from in vitro receptor competition assays.

recombinant human ERβ = target: T2, recombinant human ERβ (Homo sapiens, UniProt Q92731); test: ERβ binding assay: competition of [3H]E2 binding by competing estrogens; conditions: for RBAβ (%) (relative binding affinity for ERβ, of E2): calculated against E2 = 100; for binding affinity for ERβ (in words): concentrations up to 1000 nM
T2 construct: purchased PanVera Corporation (Madison, Wis.); host or cells: baculovirus-mediated expression system
From the text: as §1, §2, §3, §4, §5

[1] = [3H]E2 10 nM, competitor up to 1000 nM, read-out: ERβ IC50

T2 sequence (Q92731 whole entry): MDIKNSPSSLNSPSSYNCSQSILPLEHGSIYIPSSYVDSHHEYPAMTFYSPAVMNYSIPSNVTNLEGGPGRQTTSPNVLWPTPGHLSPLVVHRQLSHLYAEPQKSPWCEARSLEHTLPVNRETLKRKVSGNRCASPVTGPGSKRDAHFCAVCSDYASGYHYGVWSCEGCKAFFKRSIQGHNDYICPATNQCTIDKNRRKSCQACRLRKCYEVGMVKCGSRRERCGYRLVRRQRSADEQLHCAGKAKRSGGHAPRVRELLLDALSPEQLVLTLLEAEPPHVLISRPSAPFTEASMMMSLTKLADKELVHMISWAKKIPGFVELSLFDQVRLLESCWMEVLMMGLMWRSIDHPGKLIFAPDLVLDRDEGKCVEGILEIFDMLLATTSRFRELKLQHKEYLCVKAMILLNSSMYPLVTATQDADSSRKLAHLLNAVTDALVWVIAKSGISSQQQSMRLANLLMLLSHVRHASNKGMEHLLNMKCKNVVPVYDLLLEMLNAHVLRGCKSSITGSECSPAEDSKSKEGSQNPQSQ

CC12CCC3c4ccc(O)cc4C(=O)CC3C1CC(O)C2O (centres unmarked) [6-Keto-E3, 6-Ketoestriol]
RBAα % (relative binding affinity for ERα, of E2) (recombinant human ERα): 25% | RBAα/RBAβ (recombinant human ERα): 8.3 | RBAα/RBAβ (recombinant human ERα; listed as 6-ketoestriol): about 8.3 | IC50 (recombinant human ERα; read-out: ERα IC50): 44.7 nM | RBA for ERα, % of E3 (recombinant human ERα; relative to E3): 224% | RBAβ (%) (relative binding affinity for ERβ, of E2) (recombinant human ERβ): 3% | IC50 (recombinant human ERβ; read-out: ERβ IC50): 316 nM | RBA for ERβ, % of E3 (recombinant human ERβ; relative to E3): 8%

C[C@]12CC[C@@H]3c4cc(O)c(O)cc4CC[C@H]3[C@@H]1C[C@@H](O)[C@@H]2O [2-OH-E3, 2-Hydroxyestriol]
RBAα % (relative binding affinity for ERα, of E2) (recombinant human ERα): 2% | RBAα/RBAβ (recombinant human ERα): 2 | RBAα/RBAβ (recombinant human ERα; listed as 2-hydroxyestriol): about 2 | IC50 (recombinant human ERα; read-out: ERα IC50): 501 nM | RBAβ (%) (relative binding affinity for ERβ, of E2) (recombinant human ERβ): 1% | IC50 (recombinant human ERβ; read-out: ERβ IC50): 794 nM

CC12CCC3c4ccc(O)c([N+](=O)[O-])c4CCC3C1CCC2=O (centres unmarked) [4-NO2-E1, 4-Nitroestrone]
RBAα % (relative binding affinity for ERα, of E2) (recombinant human ERα): 3% | binding affinity for ERα (in words) (recombinant human ERα; concentrations up to 1000 nM): very weak binding affinities | IC50 (recombinant human ERα; read-out: ERα IC50): 447 nM | binding affinity for ERβ (in words) (recombinant human ERβ): very weak binding affinities | IC50 (recombinant human ERβ; read-out: ERβ IC50): > 1000 nM

CC12CCC3c4cc(Br)c(O)cc4CCC3C1CCC2O (centres unmarked) [2-Br-E2, 2-Bromoestradiol]
RBAα % (relative binding affinity for ERα, of E2) (recombinant human ERα): 4% | RBAα/RBAβ (recombinant human ERα): 10 | RBAα/RBAβ (recombinant human ERα; listed as 2-bromoestradiol): about 10 | IC50 (recombinant human ERα; read-out: ERα IC50): 281 nM | RBAβ (%) (relative binding affinity for ERβ, of E2) (recombinant human ERβ): < 0.5% and 0.4% | IC50 (recombinant human ERβ; read-out: ERβ IC50): 2510 nM

COc1c(O)ccc2c1CCC1C2CCC2(C)C(=O)CCC12 (centres unmarked) [4-MeO-E1, 4-Methoxyestrone]
IC50 (recombinant human ERα): > 1000 nM | binding affinity for ERα (in words) (recombinant human ERα): did not have appreciable binding affinity | IC50 (recombinant human ERβ): > 1000 nM | binding affinity for ERβ (in words) (recombinant human ERβ): did not have appreciable binding affinity

C[C@]12C[C@@H](O)[C@@H]3c4ccc(O)cc4CC[C@H]3[C@@H]1CCC2=O [11α-OH-E1, 11α-Hydroxyestrone]
IC50 (recombinant human ERα; read-out: ERα IC50): > 1000 nM | IC50 (recombinant human ERβ; read-out: ERβ IC50): > 1000 nM

CC(=O)OC1C[C@]2(C)[C@@H](O)CC[C@H]2[C@@H]2CCc3cc(O)ccc3[C@@H]12 (stereo partly drawn) [11-Acetate-E2, 17β-Estradiol 11-acetate]
IC50 (recombinant human ERβ; [1]): 19.9 nM

C[C@]12CC[C@@H]3c4ccc(O)cc4CC[C@H]3[C@@H]1C[C@@H](O)[C@H]2O [16α-OH-E2-17α, 16α-Hydroxyestradiol-17α (16,17-Epiestriol)]
IC50 (recombinant human ERβ; read-out: ERβ IC50): 11.2 nM | binding affinity for ERβ, times higher than E2-17α (recombinant human ERβ; relative to E2-17α): 16 times

C#CC1(O)CCC2C3CCc4cc(O)ccc4C3CCC21C (stereo not drawn) [17α-EE2, 17α-Ethynylestradiol, reference compound]
binding affinity for ERβ (in words) (recombinant human ERβ): only about half of that of E2

C[C@]12CC[C@@H]3c4ccc(O)cc4CC[C@H]3[C@@H]1C[C@H](O)[C@H]2O [16β-OH-E2-17α, 16β-Hydroxyestradiol-17α (16,17-Epiestriol)]
preference of binding affinity for ERβ over ERα (recombinant human ERβ; ERβ over ERα): 18 fold | IC50 (recombinant human ERβ; read-out: ERβ IC50): 70.8 nM

C[C@]12CC[C@@H]3c4ccc(O)cc4C[C@@H](CCCCCCOCc4ccccc4)[C@H]3[C@@H]1CC[C@@H]2O [E2-7α-(CH2)6OC6H5, 7α-(6-Benzyloxyhexanyl)-17β-estradiol]
IC50 (recombinant human ERβ; [1]): 63.1 nM
